In PMC6843816, “Angiotensin Converting Enzyme (ACE)-Peptide Interactions: Inhibition Kinetics, In Silico Molecular Docking and Stability Study of Three Novel Peptides Generated from Palm Kernel Cake Proteins” (Biomolecules, 2019):
Where “and” joins values, the source holds several entries; their conditions need not be identical. Equal entries are not always repeated. Where two headings read alike, the source gives them in different places. Peptide text beside a SMILES is read from it.

Columns and labels:
[1] = target: T1, angiotensin-converting enzyme (ACE) (Oryctolagus cuniculus, UniProt P12822); experiment: Peptide stability study: hydrolysis of peptides by ACE, RP-HPLC; type: in vitro ADME, rabbit; settings: 37 °C, peptide 4 mM; for metabolised at 0.5 h, 2.4 mM / metabolised at 1 h, 2.4 mM / metabolised at 2 h, 2.4 mM / metabolised at 3 h, 2.4 mM: rabbit, isolated angiotensin-converting enzyme (ACE), read-out: Cleavage (%); for metabolised at 1 h, 2.4 mM: incubation with ACE 1 h; for metabolised at 2 h, 2.4 mM: incubation with ACE 2 h
T1 construct: Angiotensin-I-converting enzyme (rabbit lung); purchased Sigma Chemical Co., (St Louis, MO, USA); host or cells: rabbit lung tissue
T1 sequence (P12822 34-1310): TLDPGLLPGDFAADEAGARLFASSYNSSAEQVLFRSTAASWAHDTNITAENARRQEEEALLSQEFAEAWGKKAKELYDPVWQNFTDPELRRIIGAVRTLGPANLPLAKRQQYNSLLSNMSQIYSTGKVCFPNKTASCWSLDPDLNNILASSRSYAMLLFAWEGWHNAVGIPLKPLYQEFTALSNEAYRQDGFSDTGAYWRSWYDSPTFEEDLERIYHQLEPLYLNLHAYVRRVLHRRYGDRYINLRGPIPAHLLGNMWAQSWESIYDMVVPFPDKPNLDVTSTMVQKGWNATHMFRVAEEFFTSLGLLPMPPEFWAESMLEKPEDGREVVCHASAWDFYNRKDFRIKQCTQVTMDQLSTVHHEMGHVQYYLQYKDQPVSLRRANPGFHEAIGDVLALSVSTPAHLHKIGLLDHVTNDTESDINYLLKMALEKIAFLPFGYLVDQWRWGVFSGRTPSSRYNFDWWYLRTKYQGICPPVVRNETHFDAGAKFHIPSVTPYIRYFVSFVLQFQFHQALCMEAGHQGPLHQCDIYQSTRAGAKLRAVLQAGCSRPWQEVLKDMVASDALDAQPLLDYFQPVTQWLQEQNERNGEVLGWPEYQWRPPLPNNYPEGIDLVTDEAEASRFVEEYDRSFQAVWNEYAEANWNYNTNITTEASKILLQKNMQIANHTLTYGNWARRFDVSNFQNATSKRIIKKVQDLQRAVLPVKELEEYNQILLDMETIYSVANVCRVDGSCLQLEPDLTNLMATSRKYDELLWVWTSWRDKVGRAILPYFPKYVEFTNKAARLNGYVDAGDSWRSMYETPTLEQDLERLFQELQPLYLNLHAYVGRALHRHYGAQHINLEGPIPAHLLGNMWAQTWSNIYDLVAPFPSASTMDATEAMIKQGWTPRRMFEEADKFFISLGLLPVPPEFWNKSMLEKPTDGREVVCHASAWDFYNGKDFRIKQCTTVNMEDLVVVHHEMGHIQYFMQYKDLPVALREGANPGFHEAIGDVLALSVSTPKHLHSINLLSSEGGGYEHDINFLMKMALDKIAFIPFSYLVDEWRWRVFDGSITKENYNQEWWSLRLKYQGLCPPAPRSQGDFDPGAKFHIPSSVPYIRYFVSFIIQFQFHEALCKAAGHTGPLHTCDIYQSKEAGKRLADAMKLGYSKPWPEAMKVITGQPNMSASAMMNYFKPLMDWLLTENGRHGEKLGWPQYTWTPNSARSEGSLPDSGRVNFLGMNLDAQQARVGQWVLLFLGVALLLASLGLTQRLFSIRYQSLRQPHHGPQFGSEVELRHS
Protocol: Peptide stability study was carried out using the method described by Forghani et al. and Yang, Marczak, Yokoo, Usui and Yoshikawa with modifications. Each peptide solution (225 µL), at a concentration of 4 mM, was incubated with 150 µl of ACE (100 mU/mL) at 37 °C and incubation time of 0, 0.5, 1, 2 and 3 h. Peptide samples were withdrawn at their respective incubation time separately and kept in ice prior to analysis by HPLC. A 20-µL sample was loaded onto a Hypersil GOLD C18 column (4.6 × 250 mm) attached to a LC 20AT apparatus (Shimadzu Co., Kyoto, Japan). The column was conditioned with eluent A (0.1% TFA in DW) and eluted with 100% eluent A from 0 to 10 min. The peptides were eluted with eluent B (0.1% TFA in CH3CN) with a gradient elution of 0–100% for 10–50 min. The absorbance was read at 215 nm.

[2] = target: T1, angiotensin-converting enzyme (ACE); experiment: Kinetics study of ACE inhibition (Michaelis-Menten and Lineweaver-Burk plots, HHL substrate); type: biochemical, rabbit; settings: from plot of 1/Vmax against inhibitor concentration; read-out: Kiu (mM) (enzyme-inhibitor dissociation constant)
Protocol: Mode of enzyme inhibition, maximum initial velocity (Vmax), Michaelis-Menten constant (Km), inhibitory constant (Ki) and catalytic efficiency were determined using Michaeles-Menten and Lineweaver-Burk plots of 1/v versus 1/[S].
Enzyme activity was shown as nmol hippuric acid produced per min of enzymatic reaction. Michaelis-Menten and Lineweaver-Burk plots were created using GRAPHPAD PRISM 6.07 (GraphPad, Software Inc., San Diego, CA, USA) software. Vmax and Km were calculated using the same software. Kiu was calculated from the plot of 1/Vmax against inhibitor concentration at the intercept on the inhibitor concentration axis).

[3] = target: T1, angiotensin-converting enzyme (ACE); experiment: ACE-inhibitory capacity of peptides with and without pre-incubation with ACE; IC50; type: biochemical, rabbit; settings: for IC50: unit given, not in Table 5, read-out: ACE Inhibition (IC50); for ACE-Inhibitory Capacity (%) Without Pre-Incubation: without pre-incubation with ACE
ACE = settings: read-out: Kiu, cited from earlier work
[4] = peptides generated from Stichopus horrens

Compound | Cleavage (%) ([1]; incubation with ACE 0.5 h) | Cleavage (%) ([1]; incubation with ACE 3 h) | metabolised at 0.5 h, 2.4 mM ([1]; incubation with ACE 0.5 h) [%] | metabolised at 1 h, 2.4 mM [1] [%] | metabolised at 2 h, 2.4 mM [1] [%] | metabolised at 3 h, 2.4 mM ([1]; incubation with ACE 3 h) [%] | Ki [2] [mM] | IC50 [3] [µM] | ACE-Inhibitory Capacity (%) With Pre-Incubation [3] [%] | ACE-Inhibitory Capacity (%) Without Pre-Incubation [3] [%] | Ki (ACE; [4]) [µM] | Ki (ACE; ref Udenigwe, et al. 31) [µM]
CC(C)C[C@H](NC(=O)[C@H](CC(C)C)NC(=O)[C@H](C)NC(=O)[C@H](Cc1ccc(O)cc1)NC(=O)[C@H](Cc1c[nH]cn1)NC(=O)CNC(=O)[C@H](C)NC(=O)CNC(=O)[C@H](CCC(=O)O)NC(=O)[C@H](CCC(N)=O)NC(=O)[C@@H](NC(=O)CN)C(C)C)C(=O)O [GVQEGAGHYALL] (H-GVQEGAGHYALL-OH; N-terminus and C-terminus assumed) | 46 | 97% | 46 ± 1.5 | 65 ± 2.6 | 86 ± 3.1 | 97 ± 3.4 | 3.18 | 239 | 75 ± 2.11 | 70 ± 1.15 |  | 
C[C@H](NC(=O)[C@@H](N)Cc1c[nH]c2ccccc12)C(=O)N[C@@H](Cc1ccccc1)C(=O)N[C@@H](CO)C(=O)O [WAFS] (H-WAFS-OH; N-terminus and C-terminus assumed) | 43 | 68% | 43 ± 2 | 42 ± 1.6 | 63 ± 3 | 68 ± 3.4 | 2 | 202 | 56 ± 1.34 | 55 ± 1.81 |  | 
CC(C)C[C@H](NC(=O)[C@H](CC(C)C)NC(=O)[C@H](CC(C)C)NC(=O)[C@@H](N)Cc1ccc(O)cc1)C(=O)N[C@@H](CCCCN)C(=O)O [YLLLK] (H-YLLLK-OH; N-terminus and C-terminus assumed) | 91.7 | 94% and 94.3% | 92 ± 2.8 | 93 ± 1.9 | 94 ± 3 | 94 ± 2.7 |  | 47 | 80 ± 2.04 | 100 ± 2.99 |  | 
CRQNTLGHNTQTSIAQ |  |  |  |  |  |  |  |  |  |  | 210 | 
SAAVGSP |  |  |  |  |  |  |  |  |  |  | 1570 | 
VSRHFASYAN |  |  |  |  |  |  |  |  |  |  | 610 | 
WVYY |  |  |  |  |  |  |  |  |  |  |  | 60
